Measurements from article PMC3070360 (Journal of natural products, 2011).

Tests used:
DU-145 = test: NCI 60 cell line screen, DU-145; assay type: cell-based; settings: read-out: GI50 DU-145, DU-145, Prostate
LOX-IMVI = test: NCI 60 cell line screen, LOX-IMVI; assay type: cell-based, human; settings: read-out: GI50 LOX-IMVI, Melanoma
IGROV-1 = test: NCI 60 cell line screen, IGROV-1; assay type: cell-based, human; settings: read-out: GI50 IGROV-1, IGROV-1, Ovarian
HCT-116 = test: NCI-DTP 60 cell line screen, HCT-116; assay type: cell-based; settings: read-out: GI50 HCT-116, data provided by NCI-DTP, NA=not active
MDA-MB-231 = test: NCI-DTP 60 cell line screen, MDA-MB-231; assay type: cell-based; settings: read-out: GI50 MDA-MB-231, data provided by NCI-DTP, NA=not active
NCI-H522 = test: NCI 60 cell line screen, NCI-H522; assay type: cell-based; settings: read-out: GI50 NCI-H522, NCI-H522, Lung
A498 = test: NCI 60 cell line screen, A498; assay type: cell-based, human; settings: read-out: GI50 A498, A498, Renal
U25-1 = test: NCI 60 cell line screen, U25-1; assay type: cell-based; settings: read-out: GI50 U25-1, U25-1, CNS
PC-3 = settings: read-out: GI50 PC-3; human prostate carcinoma cell line PC-3; cited from earlier work
TSU-Pr1 = settings: read-out: GI50 TSU-Pr1; human prostate carcinoma cell line TSU-Pr1; cited from earlier work
LnCap = settings: read-out: GI50 LnCap; human prostate carcinoma cell line LnCap; cited from earlier work
HCT-116 cells = test: Clonogenic dose-response analysis; assay type: cell-based
NCI 60 cell lines = test: NCI 60 cell line screen, single dose and overall cytotoxicity; assay type: cell-based

Row | Substance | GI50 (DU-145) | GI50 (LOX-IMVI) | GI50 (IGROV-1) | GI50 (HCT-116) | GI50 (MDA-MB-231) | GI50 (NCI-H522) | GI50 (A498) | GI50 (U25-1) | GI50 (PC-3) | GI50 (TSU-Pr1) | GI50 (LnCap) | Concentration achieving the desired therapeutic effect (90% kill of tumor cells) (HCT-116 cells; HCT-116, clonogenic, continuous exposure for seven days) | Toxicity to HCT-116 cells in the clonogenic assay (HCT-116 cells; two hour and 24 hour dosing schedules) | Diminished cytotoxicity (summary in the conclusions) (NCI 60 cell lines)
1 | (+)-jasplakinolide V [Compound 13] | 80 nM | 7 nM | 30 nM | 70 nM | 90 nM | 60 nM | 10 nM | 40 nM | – | – | – | – | – | –
2 | jasplakinolide Q [Compound 7] | 100 nM | 20 nM | 10 nM | 50 nM | 70 nM | 160 nM | 80 nM | 30 nM | – | – | – | – | – | –
3 | jasplakinolide B [Compound 3, reference compound] | – | – | – | – | 40 nM | – | – | – | – | – | – | – | – | –
4 | jasplakinolide [Compound 1] | – | – | – | – | – | – | – | – | 65 nM | 170 nM | 41 nM | 0.004 µM | Little toxicity | –
5 | jasplakinolide J [Compound 5] | 290 nM | 30 nM | 20 nM | 110 nM | 260 nM | 610 nM | 210 nM | 50 nM | – | – | – | – | – | ≈ 1 uM
6 | (+)-jasplakinolide Z3 [Compound 11] | 3720 nM | 160 nM | 170 nM | – | 740 nM | 40 nM | 440 nM | 50 nM | – | – | – | – | – | –
7 | (+)-jasplakinolide Z1 [Compound 9] | 18800 nM | 280 nM | 1760 nM | – | 2500 nM | 120 nM | – | 600 nM | – | – | – | – | – | –
